Tested on: cancer cells
Assay: MTT cytotoxic assay of esterification products (Cytotoxicity activity)
Format: cell-based, human
In short: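 Cytotoxicity was read by MTT (Carmichael method, modified), with cells seeded 24 h ahead of treatment. Sixteen human cancer lines spanning bone, lung, bladder, ovary, colon, pancreas, prostate, skin, mouth, kidney, breast, liver, brain, leukemia and cervix were used. Test samples were acyl chloride esterification products of triterpenes, as mixtures or HPLC-purified compounds.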

[1] = E4A esterified with 2-propenoyl chloride (Ppe = Propenoyl), compounds isolated with HPLC
[2] = E4A esterified with Propionyl chloride (Ppi = Propionyl), compounds isolated with HPLC
[3] = E4A esterified with benzoyl chloride (Ben = benzoyl), compounds isolated with HPLC
[4] = esterification products of core compound E4A with (2E)-2-pentenoyl chloride (2pe = 2-pentenoyl)
[5] = esterification products of core compound E4A with Butyryl chloride (But = Butyryl)
[6] = esterification products of core compound E4A with Decanoyl chloride (Dec = Decanoyl)
[7] = esterification products of core compound E4A with Isobutyryl chloride (Iso = Isobutyryl)
[8] = esterification products of core compound E4A with Myristoyl chloride (Myr = Myristoyl)
[9] = esterification products of core compound E4A with Octanoyl chloride (Oct = Octanoyl)
[10] = E4A esterified with Cinnamoyl chloride (Cin = Cinnamoyl), compounds isolated with HPLC
[11] = MTT cytotoxic assay, isolated esterification products of E4A
[12] = E4A esterified with Crotonoyl chloride (Cro = Crotonoyl), compounds isolated with HPLC
[13] = esterification products isolated with HPLC, graded strong / moderate / weak
[14] = E4A esterified with Acetyl chloride (Acy = Acetyl), compounds isolated with HPLC
[15] = esterification products of E4A—Tig—N with senecioyl chloride

SMILES: CC1(C)CC2C3=CCC4C5(C)CCC(O)C(C)(COC(=O)c6ccccc6)C5CCC4(C)C3(C)CC(O)C2(CO)C(O)C1OC(=O)c1ccccc1 (centres unmarked) [Compound K29]
- Cytotoxicity activity [1]: moderate
- Cytotoxicity activity [2]: moderate
- Cytotoxicity activity [3]: moderate
- Cytotoxicity activity [4]: moderate
- Cytotoxicity activity [5]: moderate
- Cytotoxicity activity [6]: moderate
- Cytotoxicity activity [7]: moderate
- Cytotoxicity activity [8]: moderate
- Cytotoxicity activity [9]: moderate

SMILES: CC1(C)CC2C3=CCC4C5(C)CCC(O)C(C)(COC(=O)C=Cc6ccccc6)C5CCC4(C)C3(C)CC(OC(=O)C=Cc3ccccc3)C2(COC(=O)C=Cc2ccccc2)C(O)C1O (centres unmarked) [Compound J7]
- Cytotoxicity activity [10]: moderate

SMILES: CC(C)=CC(=O)OCC1(C)C(OC(=O)C=C(C)C)CCC2(C)C1CCC1(C)C2CC=C2C3CC(C)(C)C(O)C(OC(=O)C=C(C)C)C3(COC(=O)C=C(C)C)C(O)CC21C (centres unmarked) [Compound B9]
- Cytotoxicity activity [11]: weak

SMILES: CCCCCC(=O)OCC12C(OC(=O)CCCCC)CC3(C)C(=CCC4C5(C)CCC(O)C(C)(CO)C5CCC43C)C1CC(C)(C)C(O)C2O (centres unmarked) [Compound D28]
- Cytotoxicity activity [11]: moderate

SMILES: CC=CC(=O)OCC1(C)C(O)CCC2(C)C1CCC1(C)C2CC=C2C3CC(C)(C)C(OC(=O)C=CC)C(OC(=O)C=CC)C3(COC(=O)C=CC)C(OC(=O)C=CC)CC21C (centres unmarked) [Compound I16]
- Cytotoxicity activity [12]: weak

SMILES: CCC(CC)C(=O)OCC1(C)C(O)CCC2(C)C1CCC1(C)C2CC=C2C3CC(C)(C)C(O)C(O)C3(COC(=O)C(CC)CC)C(O)CC21C (centres unmarked) [Compound E3]
- Cytotoxicity activity [11]: strong

SMILES: CC=CC(=O)OCC1(C)C(OC(=O)C=CC)CCC2(C)C1CCC1(C)C2CC=C2C3CC(C)(C)C(OC(=O)C=CC)C(OC(=O)C=CC)C3(COC(=O)C=CC)C(O)CC21C (centres unmarked) [Compound I15]
- Cytotoxicity activity [12]: weak

SMILES: CC1(C)CC2C3=CCC4C5(C)CCC(OC(=O)C=Cc6ccccc6)C(C)(CO)C5CCC4(C)C3(C)CC(O)C2(COC(=O)C=Cc2ccccc2)C(O)C1O (centres unmarked) [Compound J27]
- Cytotoxicity activity [10]: moderate

SMILES: CCC(CC)C(=O)OCC12C(OC(=O)C(CC)CC)CC3(C)C(=CCC4C5(C)CCC(O)C(C)(CO)C5CCC43C)C1CC(C)(C)C(O)C2O (centres unmarked) [Compound E28]
- Cytotoxicity activity [11]: moderate

SMILES: CC=CC(=O)OCC1(C)C(OC(=O)C=CC)CCC2(C)C1CCC1(C)C2CC=C2C3CC(C)(C)C(O)C(O)C3(COC(=O)C=CC)C(OC(=O)C=CC)CC21C (centres unmarked) [Compound I10]
- Cytotoxicity activity [12]: weak

SMILES: CC=C(C)C(=O)OCC1(C)C(O)CCC2(C)C1CCC1(C)C2CC=C2C3CC(C)(C)C(O)C(OC(C)=O)C3(COC(=O)C(C)=CC)C(O)CC21C (centres unmarked) [Tig—R—Acy—3]
- Cytotoxicity activity [13]: moderate

SMILES: CC(C)=CC(=O)OCC12C(O)CC3(C)C(=CCC4C5(C)CCC(O)C(C)(CO)C5CCC43C)C1CC(C)(C)C(OC(=O)C=C(C)C)C2O (centres unmarked) [Compound B25]
- Cytotoxicity activity [11]: moderate

SMILES: CC(=O)OCC12C(O)CC3(C)C(=CCC4C5(C)CCC(O)C(C)(CO)C5CCC43C)C1CC(C)(C)C(O)C2OC(C)=O (centres unmarked) [Compound H26]
- Cytotoxicity activity [14]: moderate

SMILES: CC1(C)CC2C3=CCC4C5(C)CCC(O)C(C)(CO)C5CCC4(C)C3(C)CC(O)C2(COC(=O)C=Cc2ccccc2)C(OC(=O)C=Cc2ccccc2)C1OC(=O)C=Cc1ccccc1 (centres unmarked) [Compound J20]
- Cytotoxicity activity [10]: moderate

SMILES: CCC(CC)C(=O)OCC1(C)C(O)CCC2(C)C1CCC1(C)C2CC=C2C3CC(C)(C)C(O)C(OC(=O)C(CC)CC)C3(COC(=O)C(CC)CC)C(O)CC21C (centres unmarked) [Compound E5]
- Cytotoxicity activity [11]: moderate

SMILES: CC=C(C)C(=O)OCC1(C)C(O)CCC2(C)C1CCC1(C)C2CC=C2C3CC(C)(C)C(O)C(O)C3(COC(=O)C(C)=CC)C(O)CC21C (centres unmarked) [Tig—Ang—1]
- Cytotoxicity activity [13]: strong

SMILES: CC1(C)CC2C3=CCC4C5(C)CCC(OC(=O)C=Cc6ccccc6)C(C)(COC(=O)C=Cc6ccccc6)C5CCC4(C)C3(C)CC(O)C2(COC(=O)C=Cc2ccccc2)C(O)C1O (centres unmarked) [Compound J6]
- Cytotoxicity activity [10]: moderate

SMILES: CCCCCC(=O)OCC12C(O)CC3(C)C(=CCC4C5(C)CCC(O)C(C)(CO)C5CCC43C)C1CC(C)(C)C(O)C2OC(=O)CCCCC (centres unmarked) [Compound D26]
- Cytotoxicity activity [11]: moderate

SMILES: C=CCCC(=O)OCC1(C)C(OC(=O)CCC=C)CCC2(C)C1CCC1(C)C2CC=C2C3CC(C)(C)C(O)C(O)C3(COC(=O)CCC=C)C(OC(=O)CCC=C)CC21C (centres unmarked) [Compound C10]
- Cytotoxicity activity [11]: weak

SMILES: CC1(C)CC2C3=CCC4C5(C)CCC(OC(=O)c6ccccc6)C(C)(COC(=O)c6ccccc6)C5CCC4(C)C3(C)CC(OC(=O)c3ccccc3)C2(COC(=O)c2ccccc2)C(OC(=O)c2ccccc2)C1OC(=O)c1ccccc1 (centres unmarked) [Compound K19]
- Cytotoxicity activity [1]: none
- Cytotoxicity activity [2]: none
- Cytotoxicity activity [3]: none
- Cytotoxicity activity [4]: none
- Cytotoxicity activity [5]: none
- Cytotoxicity activity [6]: none
- Cytotoxicity activity [7]: none
- Cytotoxicity activity [8]: none
- Cytotoxicity activity [9]: none

SMILES: CC=CC(=O)OC1C(OC(=O)C=CC)C2(CO)C(O)CC3(C)C(=CCC4C5(C)CCC(OC(=O)C=CC)C(C)(CO)C5CCC43C)C2CC1(C)C (centres unmarked) [Compound I23]
- Cytotoxicity activity [12]: moderate

SMILES: CC=C(C)C(=O)OCC1(C)C(O)CCC2(C)C1CCC1(C)C2CC=C2C3CC(C)(C)C(OC(=O)C=C(C)C)C(O)C3(CO)C(O)CC21C (centres unmarked) [Tig—Sen—5]
- Cytotoxicity activity [15]: moderate

SMILES: CC(=O)OC1C(OC(C)=O)C2(CO)C(O)CC3(C)C(=CCC4C5(C)CCC(OC(C)=O)C(C)(CO)C5CCC43C)C2CC1(C)C (centres unmarked) [Compound H23]
- Cytotoxicity activity [14]: moderate

SMILES: C=CCCC(=O)OCC1(C)C(OC(=O)CCC=C)CCC2(C)C1CCC1(C)C2CC=C2C3CC(C)(C)C(OC(=O)CCC=C)C(OC(=O)CCC=C)C3(COC(=O)CCC=C)C(O)CC21C (centres unmarked) [Compound C15]
- Cytotoxicity activity [11]: weak

SMILES: CC=C(C)C(=O)OCC1(C)C(O)CCC2(C)C1CCC1(C)C2CC=C2C3CC(C)(C)C(OC(=O)C(C)=CC)C(O)C3(CO)C(O)CC21C (centres unmarked) [Compound A29]
- Cytotoxicity activity [11]: moderate

SMILES: CC=CC(=O)OCC1(C)C(O)CCC2(C)C1CCC1(C)C2CC=C2C3CC(C)(C)C(O)C(OC(=O)C=CC)C3(COC(=O)C=CC)C(OC(=O)C=CC)CC21C (centres unmarked) [Compound I12]
- Cytotoxicity activity [12]: weak

SMILES: CC(C)=CC(=O)OCC1(C)C(O)CCC2(C)C1CCC1(C)C2CC=C2C3CC(C)(C)C(O)C(O)C3(COC(=O)C=C(C)C)C(OC(=O)C=C(C)C)CC21C (centres unmarked) [Compound B7]
- Cytotoxicity activity [11]: moderate

SMILES: C/C=C(/C)C(=O)OC[C@]1(C)[C@@H]2CC[C@]3(C)[C@H](CC=C4[C@@H]5CC(C)(C)[C@@H](O)[C@H](O)[C@]5(CO)[C@H](O)C[C@]43C)[C@@]2(C)CC[C@@H]1OC(=O)/C(C)=C\C [Compound G31]
- Cytotoxicity activity [11]: moderate

SMILES: CC=C(C)C(=O)OCC1(C)C(O)CCC2(C)C1CCC1(C)C2CC=C2C3CC(C)(C)C(OC(=O)C(C)=CC)C(OC(=O)C(C)=CC)C3(CO)C(O)CC21C (centres unmarked) [Compound A21]
- Cytotoxicity activity [11]: moderate

SMILES: CC=C(C)C(=O)OCC1(C)C(O)CCC2(C)C1CCC1(C)C2CC=C2C3CC(C)(C)C(OC(=O)CCCCC)C(O)C3(COC(=O)C(C)=CC)C(O)CC21C (centres unmarked) [Tig—R—Hex—2]
- Cytotoxicity activity [13]: moderate

SMILES: CC(=O)OCC12C(O)CC3(C)C(=CCC4C5(C)CCC(OC(C)=O)C(C)(CO)C5CCC43C)C1CC(C)(C)C(O)C2O (centres unmarked) [Compound H27]
- Cytotoxicity activity [14]: moderate

SMILES: CC=C(C)C(=O)OCC1(C)C(O)CCC2(C)C1CCC1(C)C2CC=C2C3CC(C)(C)C(O)C(OC(=O)CCCCC)C3(COC(=O)C(C)=CC)C(O)CC21C (centres unmarked) [Tig—R—Hex—3]
- Cytotoxicity activity [13]: moderate

SMILES: CC=C(C)C(=O)OCC1(C)C(O)CCC2(C)C1CCC1(C)C2CC=C2C3CC(C)(C)C(OC(=O)C(CC)CC)C(O)C3(COC(=O)C(C)=CC)C(O)CC21C (centres unmarked) [Tig—R—Eth—2]
- Cytotoxicity activity [13]: moderate

SMILES: CC1(C)CC2C3=CCC4C5(C)CCC(O)C(C)(COC(=O)C=Cc6ccccc6)C5CCC4(C)C3(C)CC(OC(=O)C=Cc3ccccc3)C2(COC(=O)C=Cc2ccccc2)C(OC(=O)C=Cc2ccccc2)C1OC(=O)C=Cc1ccccc1 (centres unmarked) [Compound J16]
- Cytotoxicity activity [10]: weak

SMILES: CC(=O)OCC1(C)C(O)CCC2(C)C1CCC1(C)C2CC=C2C3CC(C)(C)C(O)C(O)C3(COC(C)=O)C(OC(C)=O)CC21C (centres unmarked) [Compound H7]
- Cytotoxicity activity [14]: moderate

SMILES: CC(=O)OCC1(C)C(O)CCC2(C)C1CCC1(C)C2CC=C2C3CC(C)(C)C(OC(C)=O)C(OC(C)=O)C3(CO)C(O)CC21C (centres unmarked) [Compound H21]
- Cytotoxicity activity [14]: moderate

SMILES: CC(=O)OCC1(C)C(OC(C)=O)CCC2(C)C1CCC1(C)C2CC=C2C3CC(C)(C)C(O)C(O)C3(COC(C)=O)C(OC(C)=O)CC21C (centres unmarked) [Compound H10]
- Cytotoxicity activity [14]: weak

SMILES: CC=C(C)C(=O)OCC1(C)C(O)CCC2(C)C1CCC1(C)C2CC=C2C3CC(C)(C)C(O)C(OC(=O)C=Cc4ccccc4)C3(COC(=O)C(C)=CC)C(O)CC21C (centres unmarked) [Tig—R—Cin—3]
- Cytotoxicity activity [13]: moderate

SMILES: CC(=O)OCC1(C)C(OC(C)=O)CCC2(C)C1CCC1(C)C2CC=C2C3CC(C)(C)C(O)C(O)C3(COC(C)=O)C(O)CC21C (centres unmarked) [Compound H6]
- Cytotoxicity activity [14]: moderate

SMILES: C/C=C(\C)C(=O)OC[C@]1(C)C2CC[C@]3(C)C(CC=C4C5CC(C)(C)[C@@H](O)[C@H](O)[C@]5(COC(=O)C=C(C)C)[C@H](O)C[C@]43C)[C@@]2(C)CC[C@@H]1O (stereo partly drawn) [E4A-Tig-Sen-1]
- Cytotoxicity activity [15]: strong
